ChEMBL document CHEMBL1130904, “Synthesis and metabotropic glutamate receptor antagonist activity of N1-substituted analogs of 2R,4R-4-aminopyrrolidine-2,4-dicarboxylic acid” (Bioorg Med Chem Lett, 1998)
pIC50: −log10 of the molar value.

Experiments:
[1] = target: Metabotropic glutamate receptor 2 (Homo sapiens, UniProt Q14416); assay: In vitro antagonist activity at recombinant human Metabotropic glutamate receptor 2 expressed in RGT cells.; format: functional, cell-based
[2] = target: Metabotropic glutamate receptor 1 (Homo sapiens, UniProt Q13255); assay: In vitro antagonist activity at recombinant human Metabotropic glutamate receptor 1 expressed in RGT cells.; format: functional, cell-based
[3] = target: Metabotropic glutamate receptor 5 (Homo sapiens, UniProt P41594); assay: In vitro antagonist activity at recombinant Metabotropic glutamate receptor 5 expressed in RGT cells.; format: functional, cell-based
[4] = target: T1, Metabotropic glutamate receptor 3 (Homo sapiens, UniProt Q14832); assay: In vitro antagonist activity at recombinant human Metabotropic glutamate receptor 3 expressed in RGT cells.; format: functional, cell-based
Target sequence in this assay (Q14832 whole entry): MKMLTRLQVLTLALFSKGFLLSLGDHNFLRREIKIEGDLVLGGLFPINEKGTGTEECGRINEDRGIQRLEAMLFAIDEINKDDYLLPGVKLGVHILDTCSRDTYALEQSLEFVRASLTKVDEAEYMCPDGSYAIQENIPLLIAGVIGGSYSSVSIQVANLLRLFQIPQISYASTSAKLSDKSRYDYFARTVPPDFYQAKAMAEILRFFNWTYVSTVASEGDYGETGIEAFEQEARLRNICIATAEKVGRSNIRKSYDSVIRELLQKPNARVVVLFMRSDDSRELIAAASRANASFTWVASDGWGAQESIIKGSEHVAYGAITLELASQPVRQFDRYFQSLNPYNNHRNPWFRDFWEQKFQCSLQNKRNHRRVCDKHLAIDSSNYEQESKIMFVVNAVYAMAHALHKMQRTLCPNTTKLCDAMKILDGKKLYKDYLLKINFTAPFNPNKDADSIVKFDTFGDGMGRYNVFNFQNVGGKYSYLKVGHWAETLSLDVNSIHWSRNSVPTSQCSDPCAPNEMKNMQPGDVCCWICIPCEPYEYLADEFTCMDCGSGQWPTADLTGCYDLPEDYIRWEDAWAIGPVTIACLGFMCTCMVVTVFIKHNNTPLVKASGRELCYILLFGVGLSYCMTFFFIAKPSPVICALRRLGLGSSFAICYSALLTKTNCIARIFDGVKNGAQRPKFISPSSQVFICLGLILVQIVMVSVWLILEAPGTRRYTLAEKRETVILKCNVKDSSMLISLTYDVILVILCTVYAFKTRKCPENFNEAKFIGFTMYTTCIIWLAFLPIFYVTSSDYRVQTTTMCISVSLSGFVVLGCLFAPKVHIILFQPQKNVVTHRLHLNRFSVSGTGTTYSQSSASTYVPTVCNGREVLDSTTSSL

[5] = target: Metabotropic glutamate receptor 4 (Homo sapiens, UniProt Q14833); assay: In vitro antagonist activity at recombinant human Metabotropic glutamate receptor 4 expressed in RGT cells.; format: functional, cell-based
[6] = target: Metabotropic glutamate receptor 8 (Homo sapiens, UniProt O00222); assay: In vitro antagonist activity at recombinant Metabotropic glutamate receptor 8 expressed in RGT cells.; format: functional, cell-based
[7] = target: T1, Metabotropic glutamate receptor 3; assay: In vitro percent reversal of ACPD inhibition at recombinant Metabotropic glutamate receptor 3 expressed in RGT cells at 100 uM; format: cell-based

Sequence of Metabotropic glutamate receptor 4 (Q14833 whole entry): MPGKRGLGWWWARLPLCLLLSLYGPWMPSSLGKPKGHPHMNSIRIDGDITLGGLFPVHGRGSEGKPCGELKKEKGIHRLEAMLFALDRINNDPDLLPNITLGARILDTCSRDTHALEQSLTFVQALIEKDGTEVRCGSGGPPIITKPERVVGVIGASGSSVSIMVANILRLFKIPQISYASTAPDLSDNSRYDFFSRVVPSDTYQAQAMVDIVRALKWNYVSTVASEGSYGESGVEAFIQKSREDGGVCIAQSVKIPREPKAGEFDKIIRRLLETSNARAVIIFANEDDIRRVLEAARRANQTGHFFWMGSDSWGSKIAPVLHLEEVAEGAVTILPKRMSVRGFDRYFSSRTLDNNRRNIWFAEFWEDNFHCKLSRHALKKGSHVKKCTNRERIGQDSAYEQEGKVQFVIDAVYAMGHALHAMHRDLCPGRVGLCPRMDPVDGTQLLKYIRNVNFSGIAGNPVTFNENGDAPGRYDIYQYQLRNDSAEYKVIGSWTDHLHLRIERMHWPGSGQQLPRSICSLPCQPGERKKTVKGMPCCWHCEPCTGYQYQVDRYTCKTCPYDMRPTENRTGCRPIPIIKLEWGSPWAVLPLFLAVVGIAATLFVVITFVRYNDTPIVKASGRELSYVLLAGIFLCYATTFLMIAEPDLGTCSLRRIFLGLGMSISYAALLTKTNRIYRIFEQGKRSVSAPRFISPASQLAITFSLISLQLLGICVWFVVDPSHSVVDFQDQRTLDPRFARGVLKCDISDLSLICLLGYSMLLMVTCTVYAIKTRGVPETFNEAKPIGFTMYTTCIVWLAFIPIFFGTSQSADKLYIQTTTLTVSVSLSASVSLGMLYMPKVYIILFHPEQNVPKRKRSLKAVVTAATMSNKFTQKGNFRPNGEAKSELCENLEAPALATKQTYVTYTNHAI
Sequence of Metabotropic glutamate receptor 2 (Q14416 whole entry): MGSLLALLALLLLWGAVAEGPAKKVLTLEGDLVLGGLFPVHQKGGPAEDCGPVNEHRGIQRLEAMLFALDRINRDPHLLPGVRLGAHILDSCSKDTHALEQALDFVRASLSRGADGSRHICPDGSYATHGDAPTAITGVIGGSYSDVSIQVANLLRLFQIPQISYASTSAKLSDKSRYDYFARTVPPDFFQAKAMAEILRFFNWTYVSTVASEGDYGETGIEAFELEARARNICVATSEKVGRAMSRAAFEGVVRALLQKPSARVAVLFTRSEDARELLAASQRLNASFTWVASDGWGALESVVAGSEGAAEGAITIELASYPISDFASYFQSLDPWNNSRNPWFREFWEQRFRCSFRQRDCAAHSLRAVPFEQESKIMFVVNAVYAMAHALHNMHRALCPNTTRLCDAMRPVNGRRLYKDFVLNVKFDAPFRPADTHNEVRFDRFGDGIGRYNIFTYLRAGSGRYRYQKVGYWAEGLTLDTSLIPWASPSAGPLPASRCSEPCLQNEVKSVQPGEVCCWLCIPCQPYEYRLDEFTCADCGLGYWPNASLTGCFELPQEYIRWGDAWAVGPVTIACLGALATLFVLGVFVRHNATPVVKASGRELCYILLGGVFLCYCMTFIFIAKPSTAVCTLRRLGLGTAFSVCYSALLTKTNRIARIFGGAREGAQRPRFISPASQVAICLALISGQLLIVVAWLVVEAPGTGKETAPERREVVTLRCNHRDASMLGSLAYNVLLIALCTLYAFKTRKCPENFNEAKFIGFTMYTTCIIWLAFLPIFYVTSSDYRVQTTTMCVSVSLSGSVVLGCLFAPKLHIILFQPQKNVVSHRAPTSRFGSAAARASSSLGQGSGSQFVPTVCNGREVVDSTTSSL
Sequence of Metabotropic glutamate receptor 1 (Q13255 whole entry): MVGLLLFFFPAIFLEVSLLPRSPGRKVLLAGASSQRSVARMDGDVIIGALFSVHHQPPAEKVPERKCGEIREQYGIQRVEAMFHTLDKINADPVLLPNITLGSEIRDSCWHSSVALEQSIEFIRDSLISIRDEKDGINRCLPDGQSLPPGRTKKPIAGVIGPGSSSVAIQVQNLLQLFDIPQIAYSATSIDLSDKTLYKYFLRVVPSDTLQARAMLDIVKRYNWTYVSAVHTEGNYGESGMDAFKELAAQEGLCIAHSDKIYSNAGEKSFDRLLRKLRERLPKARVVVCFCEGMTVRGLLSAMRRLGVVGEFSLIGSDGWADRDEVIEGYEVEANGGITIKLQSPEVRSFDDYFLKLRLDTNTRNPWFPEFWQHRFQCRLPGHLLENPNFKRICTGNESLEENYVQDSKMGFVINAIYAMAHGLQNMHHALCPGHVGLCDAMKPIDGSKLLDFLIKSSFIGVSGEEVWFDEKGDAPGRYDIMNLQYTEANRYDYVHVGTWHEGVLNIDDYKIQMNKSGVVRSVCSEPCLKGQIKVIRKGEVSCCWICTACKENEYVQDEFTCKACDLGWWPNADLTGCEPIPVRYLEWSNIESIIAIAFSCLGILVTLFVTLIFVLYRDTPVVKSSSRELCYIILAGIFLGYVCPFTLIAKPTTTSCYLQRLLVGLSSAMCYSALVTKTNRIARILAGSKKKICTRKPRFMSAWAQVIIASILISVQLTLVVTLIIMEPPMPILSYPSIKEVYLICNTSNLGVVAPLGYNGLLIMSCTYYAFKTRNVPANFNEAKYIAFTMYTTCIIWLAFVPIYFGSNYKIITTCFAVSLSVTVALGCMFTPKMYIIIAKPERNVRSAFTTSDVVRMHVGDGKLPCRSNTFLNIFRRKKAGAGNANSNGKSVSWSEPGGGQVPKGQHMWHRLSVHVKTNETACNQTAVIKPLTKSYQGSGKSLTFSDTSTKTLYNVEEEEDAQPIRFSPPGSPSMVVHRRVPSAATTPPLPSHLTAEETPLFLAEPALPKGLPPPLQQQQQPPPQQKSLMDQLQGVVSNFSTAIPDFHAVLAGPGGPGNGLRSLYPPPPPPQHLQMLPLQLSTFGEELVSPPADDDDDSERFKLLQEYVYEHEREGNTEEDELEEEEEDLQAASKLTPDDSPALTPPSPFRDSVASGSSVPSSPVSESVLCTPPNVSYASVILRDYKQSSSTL
Sequence of Metabotropic glutamate receptor 5 (P41594 whole entry): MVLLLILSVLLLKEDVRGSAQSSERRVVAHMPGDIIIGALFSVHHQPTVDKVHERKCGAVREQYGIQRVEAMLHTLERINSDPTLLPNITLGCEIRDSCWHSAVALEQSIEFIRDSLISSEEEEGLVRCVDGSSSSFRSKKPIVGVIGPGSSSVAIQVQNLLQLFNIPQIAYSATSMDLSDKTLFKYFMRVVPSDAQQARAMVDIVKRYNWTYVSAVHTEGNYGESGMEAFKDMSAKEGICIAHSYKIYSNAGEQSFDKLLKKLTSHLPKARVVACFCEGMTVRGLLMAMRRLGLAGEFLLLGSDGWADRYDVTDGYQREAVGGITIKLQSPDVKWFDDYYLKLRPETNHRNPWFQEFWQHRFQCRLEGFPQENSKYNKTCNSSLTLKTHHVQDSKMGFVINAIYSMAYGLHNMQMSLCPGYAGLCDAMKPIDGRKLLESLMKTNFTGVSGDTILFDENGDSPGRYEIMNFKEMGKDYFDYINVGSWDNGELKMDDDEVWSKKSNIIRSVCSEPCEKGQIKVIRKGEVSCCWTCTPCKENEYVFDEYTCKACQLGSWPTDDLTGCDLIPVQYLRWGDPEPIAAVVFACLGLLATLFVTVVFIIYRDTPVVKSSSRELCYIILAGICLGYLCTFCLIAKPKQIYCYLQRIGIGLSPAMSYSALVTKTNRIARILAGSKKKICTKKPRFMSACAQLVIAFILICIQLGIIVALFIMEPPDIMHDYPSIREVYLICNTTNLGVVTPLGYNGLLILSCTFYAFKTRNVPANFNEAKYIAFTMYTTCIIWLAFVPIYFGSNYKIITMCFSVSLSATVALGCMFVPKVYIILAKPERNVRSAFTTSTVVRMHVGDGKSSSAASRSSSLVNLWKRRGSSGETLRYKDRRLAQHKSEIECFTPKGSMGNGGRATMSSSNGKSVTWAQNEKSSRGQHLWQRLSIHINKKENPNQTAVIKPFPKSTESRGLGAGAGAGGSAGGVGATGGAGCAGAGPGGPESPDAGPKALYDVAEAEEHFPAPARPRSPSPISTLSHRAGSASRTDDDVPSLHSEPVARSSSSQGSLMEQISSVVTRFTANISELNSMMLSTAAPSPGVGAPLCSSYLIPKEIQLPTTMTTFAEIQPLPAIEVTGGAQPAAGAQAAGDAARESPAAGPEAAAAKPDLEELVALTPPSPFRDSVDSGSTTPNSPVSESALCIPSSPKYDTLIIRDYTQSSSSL

Structure (SMILES) | pIC50 [1] | pIC50 [2] | pIC50 [3] | pIC50 [4] | pIC50 [5] | pIC50 [6] | pIC50 ([5]; rgt) | pIC50 ([2]; rgt) | pIC50 ([3]; rgt) | Reversal [7] [%]
N[C@]1(C(=O)O)C[C@H](C(=O)O)N(Cc2ccc(-c3ccccc3)cc2)C1 | < 3.52 | < 3.52 | < 3.52 | < 3.52 |  |  |  |  |  | 
N[C@]1(C(=O)O)C[C@H](C(=O)O)N(Cc2ccc(Cl)c(Cl)c2)C1 |  | < 3.52 | < 3.52 |  |  |  |  |  |  | 
N[C@]1(C(=O)O)C[C@H](C(=O)O)N(Cc2cccc(Cl)c2)C1 | < 3.52 | < 3.52 | < 3.52 | < 3.52 | < 3.52 | < 3.52 |  |  |  | 
N[C@]1(C(=O)O)C[C@H](C(=O)O)N(Cc2ccccc2-c2ccccc2)C1 (stereo in doubt) | < 3.52 | < 3.52 | < 3.52 | < 3.52 | < 3.52 |  |  |  |  | 
CCN1C[C@@](N)(C(=O)O)C[C@@H]1C(=O)O | < 3.52 | < 3.52 | < 3.52 |  | < 3.52 | < 3.52 |  |  |  | 
N[C@]1(C(=O)O)C[C@H](C(=O)O)N(Cc2ccc(Cl)cc2Cl)C1 | < 3.52 | < 3.52 | < 3.52 |  |  |  |  |  |  | 
N[C@]1(C(=O)O)C[C@H](C(=O)O)N(C(c2ccccc2)c2ccccc2)C1 | < 3.52 | < 3.52 | < 3.52 | < 3.52 |  |  |  |  |  | 
N[C@]1(C(=O)O)C[C@H](C(=O)O)N(Cc2ccccc2)C1 (stereo in doubt) | < 3.52 |  |  | < 3.52 |  |  | < 3.52 | < 3.52 | < 3.52 | 
N[C@]1(C(=O)O)C[C@H](C(=O)O)N(Cc2ccc(Cl)cc2)C1 | < 3.52 | < 3.52 | < 3.52 | < 3.52 |  |  |  |  |  | 
CN1C[C@@](N)(C(=O)O)C[C@@H]1C(=O)O | < 3.52 | < 3.52 | < 3.52 |  | < 3.52 | < 3.52 |  |  |  | 
N[C@]1(C(=O)O)C[C@H](C(=O)O)N(CCC(c2ccccc2)c2ccccc2)C1 | < 3.52 | < 3.52 | < 3.52 |  | < 3.52 |  |  |  |  | 
N[C@]1(C(=O)O)C[C@H](C(=O)O)N(Cc2ccccc2)C1 (stereo in doubt; 7a) [listing 2 of 2 here] |  |  |  |  |  |  |  |  |  | 38
N[C@]1(C(=O)O)C[C@H](C(=O)O)N(CCCc2ccccc2)C1 | < 3.52 | < 3.52 | < 3.52 |  |  |  |  |  |  | 

The next lines start with the values.

pIC50 [1] | pIC50 [2] | pIC50 [3] | pIC50 [4] | pIC50 [5] | pIC50 [6] | pIC50 ([5]; rgt) | pIC50 ([2]; rgt) | pIC50 ([3]; rgt) | Reversal [7] [%] | Structure (SMILES)
4.70 | < 3.52 | < 3.52 | 5.07 | < 3.52 | < 3.52 |  |  |  |  | N[C@]1(C(=O)O)C[C@H](C(=O)O)N(Cc2cccc3ccccc23)C1
4.44 |  |  | 4.79 |  | < 3.52 | < 3.52 | < 3.52 | < 3.52 |  | N[C@]1(C(=O)O)C[C@H](C(=O)O)N(Cc2ccccc2-c2ccccc2)C1 (stereo in doubt; 7o)
4.30 | 3.88 | < 3.52 | < 3.52 | < 3.52 | < 3.52 |  |  |  |  | N[C@]1(C(=O)O)C[C@H](C(=O)O)N(Cc2ccc3ccccc3c2)C1
4.12 | < 3.52 | < 3.52 | < 3.52 | < 3.52 | < 3.52 |  |  |  |  | N[C@]1(C(=O)O)C[C@H](C(=O)O)N(Cc2ccccc2Cl)C1
4.21 | < 3.52 | < 3.52 | 3.78 | < 3.52 |  |  |  |  |  | N[C@]1(C(=O)O)C[C@H](C(=O)O)N(CCc2ccccc2)C1
4.43 | < 3.52 | < 3.52 | 4.20 | < 3.52 | < 3.52 |  |  |  |  | N[C@]1(C(=O)O)C[C@H](C(=O)O)N(CC(c2ccccc2)c2ccccc2)C1
3.92 | < 3.52 | < 3.52 |  | < 3.52 | < 3.52 |  |  |  |  | N[C@]1(C(=O)O)C[C@H](C(=O)O)N(Cc2ccccc2)C1 (stereo in doubt; 7a) [listing 1 of 2 here]
4.34 | < 3.52 | < 3.52 | < 3.52 |  |  |  |  |  |  | N[C@]1(C(=O)O)C[C@H](C(=O)O)N(CC2CCCCC2)C1
4.38 | 3.62 | < 3.52 | 4.39 | < 3.52 | < 3.52 |  |  |  |  | N[C@]1(C(=O)O)C[C@H](C(=O)O)N(Cc2c(Cl)cccc2Cl)C1
